Results on two compounds are retold here after US20040019118A1, “NMDA receptor antagonists and their use in inhibiting abnormal hyperphosphorylation of microtubule associated protein tau” (priority 2002, published 2004).

The structures appear in SMILES notation. pIC50: −log10 of the molar value. Read-outs that look alike come from different tables or passages of the source.

Experiment [1] deals with T1, PP-2A (Homo sapiens, UniProt P67775). Conditions: read-out: in vitro IC50; cited from earlier work.
T1 sequence (P67775 whole entry): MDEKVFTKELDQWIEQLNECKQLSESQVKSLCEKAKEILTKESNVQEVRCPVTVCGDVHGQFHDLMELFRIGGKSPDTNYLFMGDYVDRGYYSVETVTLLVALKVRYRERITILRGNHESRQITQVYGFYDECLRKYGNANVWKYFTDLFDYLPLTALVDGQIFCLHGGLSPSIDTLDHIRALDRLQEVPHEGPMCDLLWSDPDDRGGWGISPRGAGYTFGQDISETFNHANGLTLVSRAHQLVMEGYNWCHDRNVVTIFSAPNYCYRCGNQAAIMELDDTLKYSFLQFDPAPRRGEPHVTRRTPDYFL
Experiment [2] has as its system PP-1. The note with it: 10 nM OA, 24 h; cited from earlier work.
Experiment [3] concerns PP-1. Conditions: up to 5 μM OA, 3 h; cited from earlier work.
Experiment [4] has as its target T1, PP-2A. Set-up: treatment of the SY5Y human neuroblastoma in culture with 10 nM OA for 24 h; host or cells: SY5Y human neuroblastoma cells (endogenous). Conditions: 10 nM OA, 24 h; cited from earlier work.
A further experiment has as its system MAPK. As to the kind of experiment: MAPK activity in extracts of treated hippocampal slice cultures. The format is cell-based, rat. Conditions: after 0.3 mM glutamate; 10 μM Memantine or 15 μM MK801. As for the experimental part: The rats were anesthetized with ketamine (100 mg/kg body weight) and decapitated and the hippocampi were dissected out and sliced into 400 um coronal sections by a McIllwain tissue chopper. Select slices with uninterrupted bright transparent neuronal layers were plated, 1-3 slices/filter, onto Millicell CM filters (Millipore, Bedford, Mass.). […] After 7 DIV, the cultures were maintained in physiological potassium containing 5% horse serum medium at 35° C. for at least 20 days before any treatment was applied. When the slices were treated, the reagents were applied into the culture medium. At different time points, the slices collected with a brush were washed twice in homogenizing buffer (50 mM HEPES, pH 7.0, 10 mM β-merceptoethanol [BME], 1 mM EDTA, 1 mM EGTA, 0.1 mM phenylmethyl sulfonyl fluoride [PMSF], 2.0 mM benzamidine and 2.0 μg/ml each of aprotinin, leupeptin and pepstatin) and homogenized at 4° C. using a Teflon-glass homogenizer. The homogenate was then divided into two parts, one was centrifuged at 16000×g for 15 min and the supernatant was used to assay activities of PP-2A and PP-1. The rest of the homogenate was diluted 1:1 with a phosphatase inhibitor cocktail (20 mM β-glycerophosphate, 2 mM Na3VO4 and 100 mM NaF, pH 7.0) and either used for Western blots or centrifuged at 16000×g for 15 min and the resulting supernatant used to determine the kinase activities.
Immobilized protein G (Pierce, Rockford, Ill.), 20 μl, was mixed in 50 mM Tris, pH 7.4, 150 mM NACl, 10 mM NaF, 1.0 mM Na3VO4, 2.0 mM EGTA, 1 mM PMSF, 5 μg/ml leupeptin, 5 μg/ml aprotinin, 2 μg/ml pepstatin, 25 μg/ml phosphoramidon. After incubation at 4° C. overnight, the mixture was centrifuged and the beads were washed three times. The beads were then resuspended in 50 mM Tris, pH 7.4, containing 10 mM MgCl2. MAPK substrate peptide (UBI, Lake Placid, N.Y.) was employed for the MAPK assay. […]

For the compound `C=C1[C@@H](O)[C@@H]2O[C@]3(CC[C@H](/C=C/[C@@H](C)[C@@H]4CC(C)=C[C@@]5(O[C@H](C[C@@](C)(O)C(=O)O)CC[C@H]5O)O4)O3)CC[C@H]2O[C@@H]1[C@@H](O)C[C@H](C)[C@H]1O[C@@]2(CCCCO2)CC[C@H]1C` [OA, Okadaic Acid], at PP-2A [1], the pIC50 is approximately 9.00. Moreover, the “inhibition of PP-1” value with PP-1 [2] is approximately 65%; in the experiment on PP-1 [3] it was “no detectable inhibition”. The “inhibition of PP-2A” value at PP-2A [4] is given as “complete inhibition”.

As to `CC12CC3CC(C)(C1)CC(N)(C3)C2` [Memantine, 1-amino-3,5-dimethyl adamantane], the “effect on MAP kinase activity” value with MAPK is recorded as “no effect”.

As a reminder, the pIC50 is −log10 of the IC50, conventionally taken in molar units.
